Laboratory results from ChEMBL document CHEMBL5465560, “Selectivity Literature for EUbOPEN Chemogenomic Library” (2024).

Columns and labels:
[1] = biological target: [Pyruvate dehydrogenase (acetyl-transferring)] kinase isozyme 1, mitochondrial (Homo sapiens, UniProt Q15118); assay: Selectivity interaction (Millipore kinase profiler) EUB0000124b PDK1; settings: at 10 µM
[2] = biological target: Cyclin-dependent kinase 7 (Homo sapiens, UniProt P50613); assay: Selectivity interaction (KinomeScan (DiscoverX)) EUB0000666a CDK7; settings: at 10 µM
[3] = biological target: Tyrosine-protein kinase Srms (Homo sapiens) (UniProt Q9H3Y6); assay: Selectivity interaction (KinomeScan (DiscoverX)) EUB0000666a SRMS; settings: at 10 µM
[4] = biological target: T1, Serine/threonine-protein kinase RIO1 (Homo sapiens) (UniProt Q9BRS2); assay: Selectivity interaction (KinomeScan (DiscoverX)) EUB0001079a RIOK1; settings: at 1 µM
T1 sequence (whole entry): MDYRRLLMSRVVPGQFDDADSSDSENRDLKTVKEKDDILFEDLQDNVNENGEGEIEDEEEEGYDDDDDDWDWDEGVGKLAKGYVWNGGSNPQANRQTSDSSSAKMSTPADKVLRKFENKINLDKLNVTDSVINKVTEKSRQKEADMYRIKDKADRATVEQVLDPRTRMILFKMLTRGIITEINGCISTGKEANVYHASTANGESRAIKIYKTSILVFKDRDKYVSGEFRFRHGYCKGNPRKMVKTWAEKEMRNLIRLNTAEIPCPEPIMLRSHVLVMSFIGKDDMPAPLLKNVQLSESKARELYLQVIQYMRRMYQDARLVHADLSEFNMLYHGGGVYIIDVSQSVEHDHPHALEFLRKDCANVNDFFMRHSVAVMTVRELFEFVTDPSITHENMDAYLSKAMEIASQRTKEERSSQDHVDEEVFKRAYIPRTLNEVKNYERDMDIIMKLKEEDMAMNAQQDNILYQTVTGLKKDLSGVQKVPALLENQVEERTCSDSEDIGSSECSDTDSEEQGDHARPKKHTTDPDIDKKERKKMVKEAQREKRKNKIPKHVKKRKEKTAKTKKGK

[5] = biological target: 5-hydroxytryptamine receptor 1A (Homo sapiens, UniProt P08908); assay: Selectivity interaction (Serotonin 5HT1A Calcium flux assay, agonist and antagonist mode ) EUB0000877a HTR1A
[6] = biological target: Aurora kinase B (Homo sapiens, UniProt Q96GD4); assay: Selectivity interaction (Kinase panel (DSF assay)) EUB0001559a AURKB
[7] = biological target: T2, Serine/threonine-protein kinase DCLK1 (Homo sapiens) (UniProt O15075); assay: Selectivity interaction (KinomeScan (DiscoverX)) EUB0000092b DCLK1; settings: at 10 µM
T2 sequence (whole entry): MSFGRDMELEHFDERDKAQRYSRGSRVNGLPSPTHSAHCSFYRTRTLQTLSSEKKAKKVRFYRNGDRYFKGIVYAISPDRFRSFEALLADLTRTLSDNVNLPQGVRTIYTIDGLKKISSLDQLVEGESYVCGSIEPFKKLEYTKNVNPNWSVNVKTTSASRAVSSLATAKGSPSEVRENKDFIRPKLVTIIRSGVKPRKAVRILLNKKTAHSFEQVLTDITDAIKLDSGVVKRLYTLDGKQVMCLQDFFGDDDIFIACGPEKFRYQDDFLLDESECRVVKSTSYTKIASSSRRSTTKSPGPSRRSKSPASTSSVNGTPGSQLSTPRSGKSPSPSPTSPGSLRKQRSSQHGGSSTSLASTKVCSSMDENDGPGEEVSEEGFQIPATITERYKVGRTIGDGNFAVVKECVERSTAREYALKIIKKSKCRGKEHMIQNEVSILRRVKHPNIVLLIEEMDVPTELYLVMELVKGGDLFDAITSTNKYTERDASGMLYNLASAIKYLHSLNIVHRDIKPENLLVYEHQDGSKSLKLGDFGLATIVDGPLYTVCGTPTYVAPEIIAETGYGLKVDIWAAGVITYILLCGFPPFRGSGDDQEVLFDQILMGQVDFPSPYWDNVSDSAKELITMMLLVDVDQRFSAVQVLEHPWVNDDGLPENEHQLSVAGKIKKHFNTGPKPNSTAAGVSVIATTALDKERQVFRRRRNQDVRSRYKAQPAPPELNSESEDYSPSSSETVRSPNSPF

[8] = biological target: Protein kinase C delta type (Homo sapiens) (UniProt Q05655); assay: Selectivity interaction (Ambit KINOMEscan and KiNATiv profiling in Jurkat cells) EUB0000090b PRKCD; type: cell-based; settings: at 1 µM
[9] = biological target: Platelet-derived growth factor receptor alpha (Homo sapiens, UniProt P16234); assay: Selectivity interaction (KinomeScan (DiscoverX)) EUB0000045b PDGFRA
Sequence of Platelet-derived growth factor receptor alpha (P16234 whole entry): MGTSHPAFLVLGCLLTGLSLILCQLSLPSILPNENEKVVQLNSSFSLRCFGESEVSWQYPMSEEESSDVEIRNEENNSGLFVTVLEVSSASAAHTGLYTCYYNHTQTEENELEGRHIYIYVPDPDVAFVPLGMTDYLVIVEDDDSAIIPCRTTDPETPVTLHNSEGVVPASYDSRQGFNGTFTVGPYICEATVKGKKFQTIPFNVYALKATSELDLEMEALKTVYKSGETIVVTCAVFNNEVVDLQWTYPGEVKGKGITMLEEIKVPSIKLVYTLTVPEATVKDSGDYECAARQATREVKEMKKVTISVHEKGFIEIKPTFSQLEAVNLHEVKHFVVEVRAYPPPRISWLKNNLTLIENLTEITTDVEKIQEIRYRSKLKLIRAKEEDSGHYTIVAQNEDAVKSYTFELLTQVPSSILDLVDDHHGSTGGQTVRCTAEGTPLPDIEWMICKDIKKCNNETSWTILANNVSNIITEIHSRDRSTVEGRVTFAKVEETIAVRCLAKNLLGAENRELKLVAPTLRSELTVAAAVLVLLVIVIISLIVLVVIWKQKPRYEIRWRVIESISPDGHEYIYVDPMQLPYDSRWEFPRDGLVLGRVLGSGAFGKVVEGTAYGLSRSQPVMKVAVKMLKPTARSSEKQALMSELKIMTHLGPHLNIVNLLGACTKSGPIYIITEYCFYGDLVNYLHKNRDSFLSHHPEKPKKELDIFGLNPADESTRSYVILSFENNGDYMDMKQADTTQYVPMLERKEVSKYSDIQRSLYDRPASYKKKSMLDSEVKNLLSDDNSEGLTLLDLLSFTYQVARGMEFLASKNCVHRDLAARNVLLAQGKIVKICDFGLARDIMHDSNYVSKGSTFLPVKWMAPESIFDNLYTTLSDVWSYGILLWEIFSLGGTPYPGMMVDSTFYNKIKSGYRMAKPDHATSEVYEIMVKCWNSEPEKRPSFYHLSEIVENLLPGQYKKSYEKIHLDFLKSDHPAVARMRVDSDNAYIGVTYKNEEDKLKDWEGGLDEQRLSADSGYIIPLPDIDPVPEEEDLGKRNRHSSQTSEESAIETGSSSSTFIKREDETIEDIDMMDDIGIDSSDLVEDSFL

[10] = biological target: Serine/threonine-protein kinase N2 (Homo sapiens, UniProt Q16513); assay: Selectivity interaction (KinomeScan (DiscoverX)) EUB0001619a PKN2; settings: at 1 µM
Sequence of Serine/threonine-protein kinase N2 (Q16513 whole entry, looked up, canonical isoform): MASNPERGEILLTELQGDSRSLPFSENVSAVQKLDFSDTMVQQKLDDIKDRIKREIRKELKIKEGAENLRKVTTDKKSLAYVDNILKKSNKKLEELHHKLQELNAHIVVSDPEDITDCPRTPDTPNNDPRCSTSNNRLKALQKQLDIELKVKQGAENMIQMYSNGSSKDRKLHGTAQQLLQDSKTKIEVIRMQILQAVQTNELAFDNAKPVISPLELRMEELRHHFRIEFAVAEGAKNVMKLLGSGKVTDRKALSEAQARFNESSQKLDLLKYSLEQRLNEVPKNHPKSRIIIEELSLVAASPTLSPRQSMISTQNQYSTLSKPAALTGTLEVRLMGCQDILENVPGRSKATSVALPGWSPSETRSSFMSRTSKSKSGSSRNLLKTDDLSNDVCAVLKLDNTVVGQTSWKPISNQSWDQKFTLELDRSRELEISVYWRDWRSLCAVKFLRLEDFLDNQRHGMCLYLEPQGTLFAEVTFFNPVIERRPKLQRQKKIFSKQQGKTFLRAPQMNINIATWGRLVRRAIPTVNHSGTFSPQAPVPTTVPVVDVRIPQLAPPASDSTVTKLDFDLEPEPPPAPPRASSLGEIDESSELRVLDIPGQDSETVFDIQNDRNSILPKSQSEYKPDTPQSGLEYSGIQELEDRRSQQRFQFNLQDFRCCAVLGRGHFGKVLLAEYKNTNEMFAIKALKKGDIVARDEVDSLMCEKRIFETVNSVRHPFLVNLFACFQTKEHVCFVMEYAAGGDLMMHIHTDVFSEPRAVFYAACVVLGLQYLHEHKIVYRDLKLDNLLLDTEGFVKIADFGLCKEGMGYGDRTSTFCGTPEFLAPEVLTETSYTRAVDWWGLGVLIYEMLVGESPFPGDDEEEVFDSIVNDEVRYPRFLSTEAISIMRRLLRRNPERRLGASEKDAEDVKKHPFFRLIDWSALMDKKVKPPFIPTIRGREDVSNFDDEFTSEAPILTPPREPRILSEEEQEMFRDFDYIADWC

[11] = biological target: Casein kinase I isoform delta (Homo sapiens, UniProt P48730); assay: Selectivity interaction (Upstate Kinase Profiler service (Millipore)) EUB0000056c CSNK1D; settings: at 1 µM
Sequence of Casein kinase I isoform delta (P48730 whole entry, looked up, canonical isoform): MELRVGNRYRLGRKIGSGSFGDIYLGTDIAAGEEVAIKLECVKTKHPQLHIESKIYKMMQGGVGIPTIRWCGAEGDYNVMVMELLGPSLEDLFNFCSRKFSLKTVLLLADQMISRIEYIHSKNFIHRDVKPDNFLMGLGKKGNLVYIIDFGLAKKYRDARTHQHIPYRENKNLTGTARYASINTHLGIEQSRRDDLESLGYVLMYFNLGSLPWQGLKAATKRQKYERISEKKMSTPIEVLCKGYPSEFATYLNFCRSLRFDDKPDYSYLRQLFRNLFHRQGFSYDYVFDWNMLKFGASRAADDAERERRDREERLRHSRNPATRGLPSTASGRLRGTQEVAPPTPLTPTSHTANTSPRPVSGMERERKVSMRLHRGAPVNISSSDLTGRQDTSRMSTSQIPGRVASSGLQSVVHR

[12] = biological target: Tyrosine-protein kinase Fgr (Homo sapiens) (UniProt P09769); assay: Selectivity interaction (Upstate Kinase Profiler service (Millipore)) EUB0000056c FGR; settings: at 1 µM
Sequence of Tyrosine-protein kinase Fgr (Homo sapiens) (P09769 2-529 limits assumed): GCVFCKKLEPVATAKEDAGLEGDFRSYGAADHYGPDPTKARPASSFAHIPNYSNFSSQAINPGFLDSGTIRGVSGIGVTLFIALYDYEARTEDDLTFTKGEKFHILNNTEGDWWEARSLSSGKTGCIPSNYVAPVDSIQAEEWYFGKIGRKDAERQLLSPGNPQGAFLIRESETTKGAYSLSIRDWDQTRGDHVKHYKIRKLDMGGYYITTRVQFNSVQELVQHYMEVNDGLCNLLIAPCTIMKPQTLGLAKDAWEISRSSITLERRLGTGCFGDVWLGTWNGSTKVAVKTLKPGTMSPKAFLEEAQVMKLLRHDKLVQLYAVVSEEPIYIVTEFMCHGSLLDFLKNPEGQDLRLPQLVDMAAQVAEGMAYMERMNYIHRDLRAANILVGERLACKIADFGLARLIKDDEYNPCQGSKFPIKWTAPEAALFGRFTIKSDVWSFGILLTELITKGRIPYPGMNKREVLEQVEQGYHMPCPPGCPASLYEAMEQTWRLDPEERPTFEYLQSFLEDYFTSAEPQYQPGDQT

[13] = biological target: Angiopoietin-1 receptor (Homo sapiens) (UniProt Q02763); assay: Selectivity interaction (KinomeScan (DiscoverX)) EUB0000655a TEK; settings: at 10 µM
Sequence of Angiopoietin-1 receptor (Homo sapiens) (Q02763 whole entry): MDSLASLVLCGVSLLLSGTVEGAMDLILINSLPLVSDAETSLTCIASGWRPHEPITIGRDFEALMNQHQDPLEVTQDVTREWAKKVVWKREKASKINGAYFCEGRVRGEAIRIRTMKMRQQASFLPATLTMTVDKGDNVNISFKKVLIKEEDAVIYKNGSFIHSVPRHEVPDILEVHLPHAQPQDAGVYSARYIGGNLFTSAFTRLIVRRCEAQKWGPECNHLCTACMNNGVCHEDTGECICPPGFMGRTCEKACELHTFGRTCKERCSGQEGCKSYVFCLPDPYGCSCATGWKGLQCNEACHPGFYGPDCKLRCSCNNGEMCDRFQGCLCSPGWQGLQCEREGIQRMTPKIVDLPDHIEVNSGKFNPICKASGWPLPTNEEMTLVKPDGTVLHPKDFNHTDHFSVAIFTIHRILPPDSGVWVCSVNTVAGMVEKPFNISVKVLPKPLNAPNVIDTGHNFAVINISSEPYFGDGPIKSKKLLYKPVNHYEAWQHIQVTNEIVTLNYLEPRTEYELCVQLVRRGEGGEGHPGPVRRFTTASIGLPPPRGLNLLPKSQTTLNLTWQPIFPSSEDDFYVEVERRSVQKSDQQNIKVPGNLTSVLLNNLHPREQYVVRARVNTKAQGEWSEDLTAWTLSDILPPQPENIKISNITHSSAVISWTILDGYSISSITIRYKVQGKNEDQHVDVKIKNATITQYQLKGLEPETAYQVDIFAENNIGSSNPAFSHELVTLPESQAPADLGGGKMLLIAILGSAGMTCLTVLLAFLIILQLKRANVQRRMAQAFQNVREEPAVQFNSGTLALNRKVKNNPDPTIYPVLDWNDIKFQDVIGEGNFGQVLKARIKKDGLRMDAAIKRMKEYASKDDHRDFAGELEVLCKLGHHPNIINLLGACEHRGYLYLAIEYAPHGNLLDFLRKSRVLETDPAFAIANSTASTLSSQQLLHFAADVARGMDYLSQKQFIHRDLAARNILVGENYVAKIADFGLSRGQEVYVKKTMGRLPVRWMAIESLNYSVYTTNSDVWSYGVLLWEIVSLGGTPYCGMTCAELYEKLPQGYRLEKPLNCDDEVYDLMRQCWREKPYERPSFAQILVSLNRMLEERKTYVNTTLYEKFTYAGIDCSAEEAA

[14] = biological target: Maternal embryonic leucine zipper kinase (Homo sapiens) (UniProt Q14680); assay: Selectivity interaction (KinomeScan (DiscoverX)) EUB0000695a MELK; settings: at 100 nM
[15] = biological target: Glycogen synthase kinase-3 alpha (Homo sapiens, UniProt P49840); assay: Selectivity interaction (KinomeScan (DiscoverX)) EUB0000607a GSK3A; settings: at 10 µM
[16] = biological target: Serine/threonine-protein kinase MARK1 (Homo sapiens) (UniProt Q9P0L2); assay: Selectivity interaction (SelectScreen profiling (Invitrogen)) EUB0000607a MARK1; settings: at 2 µM
Sequence of Serine/threonine-protein kinase MARK1 (Homo sapiens) (Q9P0L2 whole entry, looked up): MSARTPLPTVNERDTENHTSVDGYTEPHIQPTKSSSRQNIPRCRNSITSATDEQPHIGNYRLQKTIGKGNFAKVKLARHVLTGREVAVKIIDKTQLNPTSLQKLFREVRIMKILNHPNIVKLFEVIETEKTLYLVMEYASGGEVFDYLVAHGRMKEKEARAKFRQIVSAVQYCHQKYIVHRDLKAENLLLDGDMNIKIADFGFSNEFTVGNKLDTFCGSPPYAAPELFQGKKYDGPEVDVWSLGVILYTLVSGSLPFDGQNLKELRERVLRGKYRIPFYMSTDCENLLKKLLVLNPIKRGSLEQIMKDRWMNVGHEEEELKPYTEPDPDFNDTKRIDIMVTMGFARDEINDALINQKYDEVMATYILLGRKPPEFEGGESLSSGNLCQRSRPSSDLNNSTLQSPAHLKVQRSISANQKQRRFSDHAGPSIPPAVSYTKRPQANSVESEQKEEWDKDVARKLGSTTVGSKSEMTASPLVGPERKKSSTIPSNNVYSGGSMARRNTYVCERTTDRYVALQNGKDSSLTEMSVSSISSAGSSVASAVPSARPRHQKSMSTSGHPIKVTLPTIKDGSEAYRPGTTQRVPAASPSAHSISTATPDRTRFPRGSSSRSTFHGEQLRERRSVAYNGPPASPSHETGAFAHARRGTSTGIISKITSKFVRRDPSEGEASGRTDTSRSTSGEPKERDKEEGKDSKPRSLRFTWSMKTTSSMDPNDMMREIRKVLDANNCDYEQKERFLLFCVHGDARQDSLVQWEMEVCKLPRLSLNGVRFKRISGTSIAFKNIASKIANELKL

CC(=O)Nc1cccc(-n2c(=O)n(C3CC3)c(=O)c3c(Nc4ccc(I)cc4F)n(C)c(=O)c(C)c32)c1
% of control [1]: 107%

O=C(NOC[C@H](O)CO)c1ccc(F)c(F)c1Nc1ccc(I)cc1F
% of control [2]: 83% | % of control [3]: 95%

Nc1cnc(N2CCc3cc(S(=O)(=O)Nc4c(F)cc(Cl)cc4F)cc(N4CCCC4=O)c32)nc1 [TP-020n]
% of control [4]: 100%

CCC(=O)N1CC[C@H](Nc2ncnc3c2CN(c2cnc(OC)c(C(F)(F)F)c2)CC3)C1 [LENIOLISIB]
IC50 [5]: > 30 µM

CN(C(=O)c1cnn2cccnc12)c1cc2c(cc1N1CCOCC1)C(=O)N(C[C@@H](F)C(C)(C)O)C2
dTM [6]: -1.6 K

CCC(=O)N1CCN(c2ccc(-n3c(=O)ccc4cnc5ccc(-c6cnc7ccccc7c6)cc5c43)cc2C(F)(F)F)CC1
% of control [7]: 100%

CN(C)C/C=C/C(=O)Nc1ccc(C(=O)N2CCCC(Nc3ncc(Cl)c(-c4c[nH]c5ccccc45)n3)C2)cc1 (configuration not stated)
% of control [8]: 75%

C=CC(=O)Nc1cc(-n2c(=O)ccc3cnc4ccc(-c5ccc(NS(C)(=O)=O)cc5)cc4c32)ccc1C
% of control ([9]; at 1 µM): 92% | % of control ([9]; at 10 µM): 100%

N#Cc1cccc(-c2c[nH]c3ncnc(N4CCOCC4)c23)c1
% of control [10]: 35%

Cc1ccc(-c2ccc3c(ccc4sc5c(c43)NC[C@@H](C)NC5=O)n2)cn1
% of inhibition [11]: -6% | % of inhibition [12]: 9%

CN(C)CCOc1ccc(-c2nc(-c3ccncc3)c(-c3ccc4c(c3)CC/C4=N\O)[nH]2)cc1
% of control [13]: 63%

Cc1cc(F)c(C(=O)Nc2cccc(-c3nncn3C(C)C)n2)cc1-n1cnc(C2CC2)c1
% of control [14]: 100%

CNC(=O)Nc1ccc(-c2nc(N3CC4CCC(C3)O4)c3cnn(C4CCC5(CC4)OCCO5)c3n2)cc1
% of control [15]: 82% | % of inhibition [16]: 13%
